≈ marks a conversion by molar mass, not a printed value.

One data set deals with Plasmodium falciparum. Kind of data set: Antimalarial activity against Plasmodium falciparum infected in human RBC assessed as reduction in parasite growth measured after 72 hrs by flow cytometry analysis. It is filed as functional, organism-based. The following applies: Erythrocyte. In general terms: Flow cytometry measures light scatter and fluorescence of single cells or particles in a stream.

Data set [1] is described as follows: Metabolic stability in human liver microsomes assessed as intrinsic clearance. The class given is ADME, Microsome. The note with it: read-out: CLH. Background: Microsomes from liver hold many membrane-bound enzymes, among them those of drug oxidation.
Data set [2] concerns the target T1, Geranylgeranyl pyrophosphate synthase (Homo sapiens, UniProt O95749).
T1 sequence (O95749 whole entry): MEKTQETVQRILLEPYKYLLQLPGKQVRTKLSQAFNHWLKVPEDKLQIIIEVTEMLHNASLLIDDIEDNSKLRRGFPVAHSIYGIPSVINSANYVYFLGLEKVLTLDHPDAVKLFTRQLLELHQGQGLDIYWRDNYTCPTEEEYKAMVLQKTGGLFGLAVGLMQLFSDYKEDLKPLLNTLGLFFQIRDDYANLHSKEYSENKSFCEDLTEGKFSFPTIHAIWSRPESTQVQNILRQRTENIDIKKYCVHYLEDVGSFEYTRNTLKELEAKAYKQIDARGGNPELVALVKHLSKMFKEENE
Kind of data set: Inhibition of recombinant human N-terminal His6-tagged GGPPS assessed as reduction in pyrophosphate release using GPP as substrate upto 200 uM incubated for 30 mins followed by substrate addition by PPiLight detection reagent based luminescence assay. The note with it: 0.5 h.

The test system of data set [3] is MDR1. As to the kind of experiment: Apparent permeability in pig LLC-PK1 cells expressing MDR1 measured upto 360 mins. It is filed as ADME, cell-based, Sus scrofa.
The nature of data set [4]: Kinetic solubility of compound. It is filed as physicochemical. The note with it: read-out: Kinetic_solubility.
The target of data set [5] is T2, Farnesyl pyrophosphate synthase (Homo sapiens, UniProt P14324).
T2 sequence (P14324 whole entry): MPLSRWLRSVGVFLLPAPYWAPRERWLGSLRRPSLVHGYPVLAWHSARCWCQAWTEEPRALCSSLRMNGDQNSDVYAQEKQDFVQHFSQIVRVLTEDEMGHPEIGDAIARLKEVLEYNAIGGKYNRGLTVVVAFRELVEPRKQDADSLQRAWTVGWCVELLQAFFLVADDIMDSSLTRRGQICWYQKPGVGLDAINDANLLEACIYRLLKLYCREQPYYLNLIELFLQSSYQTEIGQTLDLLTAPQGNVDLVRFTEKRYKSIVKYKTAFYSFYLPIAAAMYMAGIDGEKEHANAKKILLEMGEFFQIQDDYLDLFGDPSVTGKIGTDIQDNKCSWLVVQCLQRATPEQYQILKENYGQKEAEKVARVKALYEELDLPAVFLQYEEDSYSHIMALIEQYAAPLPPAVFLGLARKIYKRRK
Kind of data set: Inhibition of recombinant human N-terminal His6-tagged FPPS assessed as reduction in pyrophosphate release using GPP as substrate upto 200 uM incubated for 30 mins followed by substrate addition by PPiLight detection reagent based luminescence assay. The note with it: 0.5 h.

Data set [6] can be described thus: Metabolic stability in mouse liver microsomes assessed as intrinsic clearance. It is filed as ADME, Microsome. The following applies: read-out: CLH.
Data set [7] can be described thus: Inhibition of recombinant Plasmodium falciparum N-terminal His6-tagged GGPPS expressed in Escherichia coli expression system assessed as reduction in pyrophosphate release using GPP as substrate incubated for 30 mins followed by substrate addition by PPiLight detection reagent based luminescence assay.
Data set [8] in a line: Lipophilicity, logD of the compound in octanol-buffer at pH 7.4 measured after 18 hrs under shaking condition by reverse phase HPLC-MS analysis. The class given is physicochemical.
The subject of data set [9] is MDR1. As to the kind of experiment: Efflux ratio of apparent permeability in pig LLC-PK1 cells expressing MDR1 measured upto 360 mins. The class given is ADME, cell-based, Sus scrofa.
A short description of data set [10]: AUC in iv dosed C57BL/6J mouse. The class given is ADME, organism-based. The note with it: in vivo.
The nature of data set [11]: Fraction unbound in iv dosed C57BL/6J mouse. It is filed as ADME, organism-based. The following applies: in vivo.
Data set [12] in a line: Volume of distribution in iv dosed C57BL/6J mouse. The note with it: in vivo. It is filed as ADME, organism-based.
A short description of data set [13]: MRT in iv dosed C57BL/6J mouse. The class given is ADME, organism-based. The following applies: in vivo.
The nature of data set [14]: Clearance in iv dosed C57BL/6J mouse. The class given is ADME, organism-based. The note with it: in vivo.

As for `O=C(CCCN1CCCCCC1)Nc1cnc(-c2ccc(F)cc2)s1`, the IC50 came out at 37 nM in the data set on Plasmodium falciparum and 1330 nM in [7]. Moreover, the microsomal CLint worked out at 29 µL/min/mg in data set [1] and 18 µL/min/mg in data set [6]. Further, the “inhibition (INH)” value in data set [2] and in [5] was “Not Active” each time. Moreover, the Papp at 6 h in the data set with MDR1 [3] is 9.5 ×10⁻⁶ cm/s. Besides, the solubility kinetic in [4] is > 97 µg/mL. Moreover, in data set [8], the logD at 18 h came to 1.93. The efflux ratio at 6 h in the data set on MDR1 [9] is 1.1.
As for `O=C(CCCN1CCCCCC1)Nc1cnc(-c2ccc(F)c(F)c2)s1`, the results for the IC50 (in the data set on Plasmodium falciparum; in data set [7]) were 40 nM and 1050 nM, respectively. Further, the microsomal CLint amounted to 42 µL/min/mg in data set [1] and 10 µL/min/mg in [6]. Also, the “inhibition (INH)” value in data set [2] and in data set [5] was “Not Active” throughout. Moreover, the Papp at 6 h with MDR1 [3] stood at 5.2 ×10⁻⁶ cm/s. In [4], the solubility kinetic was > 94 µg/mL. The same compound displayed a pH-dependent lipophilicity (logD) at 18 h in data set [8] of 2.3. Besides, the efflux ratio at 6 h with MDR1 [9] came to 1.1.
Take `O=C(CCCN1CCCCC1)Nc1cnc(-c2ccc(F)cc2)s1`: the results for the IC50 (in the data set on Plasmodium falciparum; in [7]) were 73 nM and 1610 nM, respectively. Besides, the microsomal CLint in data set [1] was 15 µL/min/mg; in [6], 14 µL/min/mg. Also, the “inhibition (INH)” value in data set [2] and in [5] was “Not Active” in each case. Also, the Papp at 6 h in the data set on MDR1 [3] stood at 10.5 ×10⁻⁶ cm/s. Further, the solubility kinetic in data set [4] is > 94 µg/mL. The same compound had a logD at 18 h in data set [8] of 1.81. The efflux ratio at 6 h in the data set with MDR1 [9] was 1.
For the compound `O=C(CCCN1CCCCCC1)Nc1cnc(-c2cccc(F)c2)s1`, the “inhibition (INH)” value in data set [2] and in [5] was “Not Active” each time. Further, in [7], the IC50 was 1420 nM.
Take `COc1cc(-c2ncc(NC(=O)CCCN3CCCCCC3)s2)ccc1F`: the “inhibition (INH)” value in data set [2] and in [5] was “Not Active” each time. Besides, the IC50 in data set [7] was found to be 500 nM.
For `O=C(NCCCN1CCCCCC1)c1nnc(-c2ccccc2)s1`, the “inhibition (INH)” value in [2] and in [5] was “Not Active” throughout. Moreover, the IC50 in [7] was determined as 1040 nM.
Take `Cc1c(C(=O)NCCCN2CCCCCC2)noc1-c1ccccc1`: the “inhibition (INH)” value in data set [2] and in data set [5] was “Not Active” throughout. Besides, the IC50 in data set [7] is 2030 nM.
Turning to `O=C(NCCCN1CCCCCC1)c1ccc(-c2ccccc2)s1`, the “inhibition (INH)” value in data set [2] and in data set [5] was “Not Active” throughout. Also, the 50% inhibitory concentration (IC50) in data set [7] came out at 1340 nM.
In the case of `O=C(CCCN1CCCOCC1)Nc1cnc(-c2ccc(F)cc2F)s1`, the IC50 with Plasmodium falciparum is 74 nM; in [7] it was 1940 nM. Further, the microsomal CLint in data set [1] is < 1 µL/min/mg; in data set [6], 22 µL/min/mg. The “inhibition (INH)” value in data set [2] and in data set [5] was “Not Active” each time. Moreover, the AUC in data set [10] was found to be 65.8 ng·h/mL. In addition, the fraction unbound in [11] is 0.09. Moreover, the Vd in data set [12] amounted to 4 L/kg. The Papp at 6 h with MDR1 [3] is 9.2 ×10⁻⁶ cm/s. Besides, the solubility kinetic in data set [4] is > 100 µg/mL. Further, the MRT in data set [13] was found to be 2.63 h. In data set [14], the clearance was determined as 25.3 mL/min/kg. In addition, in data set [8], the logD at 18 h was 2.41. Besides, the efflux ratio at 6 h with MDR1 [9] was 1.5.
As to `O=C(CCCN1CCCCCC1)Nc1nnc(-c2ccc(F)cc2)s1`, the IC50 with Plasmodium falciparum was determined as 72 nM; in [7], 1800 nM. In addition, the microsomal CLint in data set [1] was 39 µL/min/mg; in data set [6], < 1 µL/min/mg. The “inhibition (INH)” value in [2] and in [5] was “Not Active” in each case. Besides, the Papp at 6 h in the data set with MDR1 [3] was 12.6 ×10⁻⁶ cm/s. The solubility kinetic in data set [4] is > 91 µg/mL. Besides, the logD at 18 h in data set [8] worked out at 1.97. Also, in the data set with MDR1 [9], the efflux ratio at 6 h was 0.9.
With `Cn1c(=O)c2cc(C(=O)NCCCN3CCCCCC3)sc2c2ccccc21`, the IC50 worked out at 90 nM in the data set on Plasmodium falciparum and 820 nM in [7]. The microsomal CLint in data set [1] is < 1 µL/min/mg; in data set [6] it was 483 µL/min/mg. In addition, the “inhibition (INH)” value in data set [2] and in data set [5] was “Not Active” in each case. Also, the apparent permeability (Papp) at 6 h in the data set with MDR1 [3] amounted to 4.1 ×10⁻⁶ cm/s. The solubility kinetic in data set [4] was 69 µg/mL (≈ 174 µM). The same compound had a logD at 18 h in data set [8] of 1.89. For the same compound, the efflux ratio at 6 h in the data set on MDR1 [9] was 6.8.
With `O=C(CCCN1CCCCCC1)Nc1cnc(-c2ccc(F)cc2F)s1`, the IC50 with Plasmodium falciparum worked out at 38 nM; in [7], 930 nM. Further, the microsomal CLint in [1] was determined as 42 µL/min/mg; in data set [6], 24 µL/min/mg. Further, the “inhibition (INH)” value in data set [2] and in data set [5] was “Not Active” in each case. Besides, in the data set on MDR1 [3], the Papp at 6 h worked out at 8.7 ×10⁻⁶ cm/s. In addition, in data set [4], the solubility kinetic is > 97 µg/mL. This compound had a logD at 18 h in [8] of 2.11. Also, the efflux ratio at 6 h with MDR1 [9] stood at 0.8.

As a reminder, the IC50 is the midpoint of a concentration-inhibition curve. A word on the Papp: it is the rate of passage across a membrane or cell layer, normalised by area and donor concentration. Broadly, the logD is lipophilicity at a set pH, counting ionised and neutral species. A lower logD goes with lower lipophilicity. The term efflux ratio denotes a quotient of directional permeabilities that is used to spot active efflux. Usually AUC stands for the area under the concentration-time curve, a measure of exposure. A higher AUC goes with more exposure. For orientation: fraction unbound means the share of the substance not bound to proteins or other matrix. Low values mean little free substance, high ones much free substance. For orientation: Vd means a proportionality between amount in the body and measured concentration, not a real space. Read a high Vd as extensive tissue distribution. Usually MRT stands for the average time that molecules of a dose stay in the body. One may read the clearance as the volume of plasma or blood freed of the substance per unit of time. Low readings indicate a low capacity for elimination, high ones a high capacity for elimination.

For the origin of these results see ChEMBL document CHEMBL4814020, “Nonbisphosphonate inhibitors of Plasmodium falciparum FPPS/GGPPS” (Bioorg Med Chem Lett, 2021).
